For the series the following is noted: instrument: DT, stepped-field.

Regarding `CCCCCCCCCCCCCCCCCCCC(=O)N[C@@H](CO[C@@H]1O[C@H](CO)[C@@H](O)C(O)C1O)[C@H](O)CCCCCCCCCCCCCCC` (stereo partly specified) [GlcCer(38:00)], the “collision cross section (N2)” value is, setting by setting: ([M+H]+) 290.18 Å²; ([M+Na]+) 291.27 Å².
As for `CCCCCCCCCCCCC=CC[C@@H](O)[C@H](CO[C@@H]1O[C@H](CO)[C@@H](O)C(O)C1O)NC(=O)CCCCCCCCCCCCCCCCCCC` (stereo partly specified) [GlcCer(38:01)], the “collision cross section (N2)” value runs as follows: ([M+H-H2O]+) 286.62 Å²; ([M+H]+) 288.15 Å²; ([M+Na]+) 290.52 Å².
Turning to `CCCCCCCCCCCCC=CC[C@@H](O)[C@H](CO[C@@H]1O[C@H](CO)[C@@H](O)C(O)C1O)NC(=O)CCCCCCCCCCCCCCCCCCCCC` (stereo partly specified) [GlcCer(40:01)], the “collision cross section (N2)” value is reported as 292.56 Å² ([M+Cl]-); 292.77 Å² ([M+H-H2O]+); 298.16 Å² ([M+HCOO]-); 293.87 Å² ([M+H]+); 296.15 Å² ([M+Na]+).
`CCCCCCCCCCCCC=CC[C@@H](O)[C@H](CO[C@@H]1O[C@H](CO)[C@@H](O)C(O)C1O)NC(=O)CC=CCCCCCCCCCCCCCCCCCC` (stereo partly specified) [GlcCer(40:02)]: the “collision cross section (N2)” value worked out at 290.36 Å² ([M+H-H2O]+), 293.98 Å² ([M+H]+) and 292.09 Å² ([M+Na]+).
For the compound `CCCCCCCCCCCCC=CC[C@@H](O)[C@H](CO[C@@H]1O[C@H](CO)[C@@H](O)C(O)C1O)NC(=O)CCCCCCCCCCCCCCCCCCCCCC` (stereo partly specified) [GlcCer(41:01)], the “collision cross section (N2)” value was 294.63 Å² ([M+H-H2O]+), 297.12 Å² ([M+H]+) and 297.42 Å² ([M+Na]+).
As to `CCCCCCCCCCCCC=CC[C@@H](O)[C@H](CO[C@@H]1O[C@H](CO)[C@@H](O)C(O)C1O)NC(=O)CCCCCCCCCCCCCCCCCCCCCCC` (stereo partly specified) [GlcCer(42:01)], the “collision cross section (N2)” value came out at 298.88 Å² ([M+Cl]-); 298.36 Å² ([M+H-H2O]+); 302.85 Å² ([M+HCOO]-); 300.59 Å² ([M+H]+); 301.76 Å² ([M+Na]+).
In the case of `CCCCCCCCCCCCC=CC[C@@H](O)[C@H](CO[C@@H]1O[C@H](CO)[C@@H](O)C(O)C1O)NC(=O)CC=CCCCCCCCCCCCCCCCCCCCCC` (stereo partly specified) [GlcCer(43:02)], the “collision cross section (N2)” value ([M+H]+) stood at 302.04 Å² and the “collision cross section (N2)” value ([M+Na]+) was found to be 302.4 Å².
For `CCCCCCCCCCCCC=CC[C@@H](O)[C@H](CO[C@@H]1O[C@H](CO)[C@@H](O)C(O)C1O)NC(=O)CCCCCCCCCCCCCCCCCCCCCCCCC` (stereo partly specified) [GlcCer(44:01)], in that order: 306.44 Å² and 307.93 Å².
As for `CCCCCCCCCCCCC=CC[C@@H](O)[C@H](CO[C@@H]1O[C@H](CO)[C@@H](O)C(O)C1O)NC(=O)CC=CCCCCCCCCCCCCCCCCCCCCCC` (stereo partly specified) [GlcCer(44:02)], the “collision cross section (N2)” value came out at 301.46 Å² ([M+H-H2O]+), 305.11 Å² ([M+H]+) and 306.31 Å² ([M+Na]+).
On to `CCCCCCCCCCCCC=CC[C@@H](O)[C@H](CO[C@@H]1O[C@H](CO)[C@@H](O)C(O)C1O)NC(=O)CC=CCC=CCCCCCCCCCCCCCCCCCCC` (stereo partly specified) [GlcCer(44:03)], for which, where the note is “[M+Na]+”, the “collision cross section (N2)” value stood at 303.93 Å².
As for `CCCCCCCCCCCCC=CC[C@@H](O)[C@H](CO[C@@H]1O[C@H](CO)[C@@H](O)C(O)C1O)NC(=O)CC=CCC=CCCCCCCCCCCCCCCCCCCCCCC` (stereo partly specified) [GlcCer(47:03)], for the setting “[M+H-2H2O]+”, the “collision cross section (N2)” value was 307.66 Å².
As to `CCCCCCCCCCCCCCCCCCCCCCCCCCCCCCC(=O)N[C@@H](CO[C@@H]1O[C@H](CO)[C@@H](O)C(O)C1O)[C@H](O)CCCCCCCCCCCCCCC` (stereo partly specified) [GlcCer(49:00)], where the note is “[M+Na-2H2O]+”, the “collision cross section (N2)” value is 318.7 Å².
Turning to `CCCCCCCCCC/C=C\CCCCCCCCCC(=O)O[C@H](COC(=O)CCCCCCCCCCCC)COP(=O)(O)O` [PA(35:01)], the “collision cross section (N2)” value ([M+2Na-H]+) is recorded as 271.84 Å².
As to `CCCCCCCC/C=C\CCCCCCCC(=O)O[C@H](COC(=O)CCCCCCCCCCCCCCCCC)COP(=O)(O)O` [PA(36:01)], the “collision cross section (N2)” value reads like this: ([M+2Na-H]+) 274.66 Å²; ([M+Na]+) 273.4 Å².
For `CCCC/C=C\CCCCCCCC(=O)OC[C@H](COP(=O)(O)O)OC(=O)CCCCCCCCC/C=C\CCCCCCCCCC` [PA(36:02)] the same measures were 273.1 Å² and 272.25 Å².
Turning to `CCCCC/C=C\C/C=C\C/C=C\C/C=C\CCCC(=O)O[C@H](COC(=O)CCCCCCCCCCCCCCC)COP(=O)(O)O` [PA(36:04)], the “collision cross section (N2)” value is 270.03 Å² ([M+2Na-H]+) and 268.39 Å² ([M+Na]+).
For `CCCCC/C=C\C/C=C\CCCCCCCCCC(=O)O[C@H](COC(=O)CCCCCCC/C=C\C/C=C\CCCCC)COP(=O)(O)O` [PA(38:04)], in that order: 276.1 Å² and 276.54 Å².
With `CCCCCC/C=C/CCCCCCCCCC(=O)O[C@H](COC(=O)CCCCCCCCCCCCCCC)COP(=O)([O-])OCC[N+](C)(C)C` [PC(34:01)], the “collision cross section (N2)” value is recorded as 283.9 Å² ([M+2Na-H]+); 290.47 Å² ([M+Cl]-); 290.79 Å² ([M+HCOO]-); 281.97 Å² ([M+H]+); 285.76 Å² ([M+K]+); 284.83 Å² ([M+Na]+).
As for `CCCCC/C=C\C/C=C\CCCCCCCCCCCC(=O)O[C@H](COC(=O)CCCCCCCCCCCC)COP(=O)([O-])OCC[N+](C)(C)C` [PC(35:02)], under “[M+Na]+”, the “collision cross section (N2)” value is 285.81 Å².
On to `CCCCC/C=C\C/C=C\CCCC/C=C\CCCC(=O)O[C@H](COC(=O)CCCCCCCCCCCCCCCCC)COP(=O)([O-])OCC[N+](C)(C)C` [PC(38:03)], for which the “collision cross section (N2)” value ([M+Cl]-) is 299.51 Å² and the “collision cross section (N2)” value ([M+Na]+) was found to be 293.06 Å².
For the compound `CC/C=C\C/C=C\C/C=C\C/C=C\C/C=C\CCCC(=O)O[C@H](COC(=O)CCCCCCC/C=C\CCCCCCCC)COP(=O)([O-])OCC[N+](C)(C)C` [PC(38:06)], the “collision cross section (N2)” value runs as follows: ([M+Cl]-) 296.13 Å²; ([M+HCOO]-) 295.99 Å².
Regarding `CC/C=C/C=C\C=C/C=C\C=C/C=C\CCCCCCCC(=O)O[C@H](COC(=O)CCCCCCCCCCCCCCCCC)COP(=O)([O-])OCC[N+](C)(C)C` [PC(40:06)], for the setting “[M+Na]+”, the “collision cross section (N2)” value worked out at 294.42 Å².
Regarding `CCCCCCCC/C=C\CCCCCCCCCC(=O)O[C@H](COC(=O)CCCCCCCCCCC)COP(=O)(O)OCCN` [PE(32:01)], the “collision cross section (N2)” value runs as follows: ([M+2Na-H]+) 268.9 Å²; ([M+Na]+) 268.62 Å².
As for `CCCCCC/C=C\CCCCCCCCCC(=O)O[C@H](COC(=O)CCCCCCCCCCCCCCC)COP(=O)(O)OCCN` [PE(34:01)], the “collision cross section (N2)” value by setting is: ([M+2Na-H]+) 275.64 Å²; ([M+H]+) 270.06 Å²; ([M+K]+) 277.57 Å²; ([M+Na]+) 276.03 Å²; ([M-H]-) 266.91 Å².
For `CCCCC/C=C\C/C=C\CCCCCCCCCCCC(=O)O[C@H](COC(=O)CCCCCCCCCCC)COP(=O)(O)OCCN` [PE(34:02)], in that order: 273.28 Å², 268.45 Å², 274.83 Å², 273.06 Å² and 265.55 Å².
In the case of `CCCCCCC/C=C\CCCCCCCC(=O)O[C@H](COC(=O)CCCCCCC/C=C\CCCCCCCC)COP(=O)(O)OCCN` [PE(35:02)], the “collision cross section (N2)” value was 277.37 Å² ([M+K]+) and 275.61 Å² ([M+Na]+).
Take `CCCCCCCCCCCCCCCCCCCCC(=O)OC[C@H](COP(=O)(O)OCCN)OC(=O)CCCCCCCCCCCCCC` [PE(36:00)]: the “collision cross section (N2)” value ([M-H]-) came to 274.96 Å².
With `CCCCCC/C=C\CCCCCCCC(=O)OC[C@H](COP(=O)(O)OCCN)OC(=O)CCCCCCCCC/C=C\CCCCCCCC` [PE(36:02)], the “collision cross section (N2)” value ([M+2Na-H]+) is given as 281.26 Å²; the “collision cross section (N2)” value ([M+H]+) is reported as 275.13 Å²; the “collision cross section (N2)” value ([M+K]+) stood at 280.72 Å²; the “collision cross section (N2)” value ([M+Na]+) was found to be 279.88 Å²; the “collision cross section (N2)” value ([M-H]-) is reported as 272.07 Å².
As for `CC/C=C\C/C=C\C/C=C\C/C=C\CCCCC(=O)O[C@H](COC(=O)CCCCCCC/C=C\CCCCCCCC)COP(=O)(O)OCCN` [PE(36:05)], where the note is “[M+K]+”, the “collision cross section (N2)” value is listed as 274.4 Å².
Regarding `CCCCC/C=C\C/C=C\CCCCCCCC(=O)OC[C@H](COP(=O)(O)OCCN)OC(=O)CCCCCCC/C=C\CCCCCCCCC` [PE(37:03)], the “collision cross section (N2)” value came to 282.12 Å² ([M+2Na-H]+) and 280.15 Å² ([M+Na]+).
Regarding `CCCCCCCC/C=C\CCCCCCCCCCCC(=O)O[C@H](COC(=O)CCCCCCCCCCCCCCC)COP(=O)(O)OCCN` [PE(38:01)], the “collision cross section (N2)” value ([M+Na]+) was 285.93 Å².
For the compound `CCCCC/C=C\C/C=C\CCCCCCCCCC(=O)O[C@H](COC(=O)CCCCCCC/C=C\CCCCCCCC)COP(=O)(O)OCCN` [PE(38:03)], the “collision cross section (N2)” value by setting is: ([M+2Na-H]+) 286.46 Å²; ([M-H]-) 277.01 Å².
In the case of `CC/C=C\C/C=C\C/C=C\C/C=C\CCCCC(=O)OC[C@H](COP(=O)(O)OCCN)OC(=O)CCCCCCCCC/C=C\C/C=C\CCCCC` [PE(38:06)], the “collision cross section (N2)” value reads like this: ([M+2Na-H]+) 281 Å²; ([M-H]-) 273.81 Å².
On to `CCCCC/C=C\C/C=C\CCCCCCCC(=O)OC[C@H](COP(=O)(O)OCCN)OC(=O)CCCCCCCCCCCCCCCCCCCC` [PE(39:02)], for which, where the note is “[M+2Na-H]+”, the “collision cross section (N2)” value is reported as 291.84 Å².

Source of the values: the C3SDB collision cross section collection.
